According to patent publication EP1247803A2, “Indolinone compounds suitable for modulation of protein kinases” (Sugen, Inc., priority 1996, dated 1998):

What was measured:
[1] = molecular target: T1, FLK-1 receptor (Mus musculus, UniProt P35918); test: FLK-1 ELISA (kinase activity of the FLK-1 receptor in FLK-1/NIH3T3 cells, VEGF stimulated); assay type: cell-based
T1 construct: expressed in transfected cells; host or cells: NIH3T3 C7#3
Procedure, shortened: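 An ELISA using affinity-purified rabbit anti-FLK-1 antiserum on anti-rabbit IgG-coated plates measured VEGF-stimulated FLK-1 kinase activity. NIH3T3 C7#3 cells carrying FLK-1 were serum-starved (0.1% FBS) overnight, then exposed to compound (final 1:200 dilution, 0.5% DMSO) for two hours at 37 °C.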

[2] = molecular target: PDGF-R (Homo sapiens, UniProt P09619); test: PDGF-R ELISA; assay type: cell-based
Sequence of PDGF-R (P09619 33-1106, species assumed): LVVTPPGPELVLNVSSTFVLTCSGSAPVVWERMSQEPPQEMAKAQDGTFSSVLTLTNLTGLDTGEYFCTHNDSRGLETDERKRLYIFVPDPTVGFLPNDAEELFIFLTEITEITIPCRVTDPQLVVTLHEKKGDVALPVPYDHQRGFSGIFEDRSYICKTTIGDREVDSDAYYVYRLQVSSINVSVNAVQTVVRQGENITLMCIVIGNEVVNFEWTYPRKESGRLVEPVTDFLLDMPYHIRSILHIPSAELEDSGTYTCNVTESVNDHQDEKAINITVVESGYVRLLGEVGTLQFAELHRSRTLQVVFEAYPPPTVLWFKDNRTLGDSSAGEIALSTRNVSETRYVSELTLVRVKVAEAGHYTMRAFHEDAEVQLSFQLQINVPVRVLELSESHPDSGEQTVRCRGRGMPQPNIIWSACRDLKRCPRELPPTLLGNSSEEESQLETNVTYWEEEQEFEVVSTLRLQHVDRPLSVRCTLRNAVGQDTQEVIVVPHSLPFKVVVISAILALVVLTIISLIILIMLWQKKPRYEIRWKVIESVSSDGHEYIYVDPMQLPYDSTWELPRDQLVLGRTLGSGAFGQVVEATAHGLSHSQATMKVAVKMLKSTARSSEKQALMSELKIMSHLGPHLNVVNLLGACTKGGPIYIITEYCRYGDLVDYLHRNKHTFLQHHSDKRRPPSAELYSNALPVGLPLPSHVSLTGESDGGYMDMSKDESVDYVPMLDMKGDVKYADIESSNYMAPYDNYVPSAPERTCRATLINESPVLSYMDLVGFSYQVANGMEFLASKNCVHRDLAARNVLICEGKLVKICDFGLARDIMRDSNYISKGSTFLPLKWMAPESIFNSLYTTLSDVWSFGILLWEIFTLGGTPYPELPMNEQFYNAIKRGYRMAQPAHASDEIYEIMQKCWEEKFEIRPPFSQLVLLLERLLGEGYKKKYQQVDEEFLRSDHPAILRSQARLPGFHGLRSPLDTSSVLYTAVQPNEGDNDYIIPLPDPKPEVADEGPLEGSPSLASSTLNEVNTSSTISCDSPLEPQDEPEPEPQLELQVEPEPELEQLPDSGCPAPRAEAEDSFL
Excerpt: A PDGF-R ELISA is described in International Patent Publication No. WO 96/40116, published December 19, 1996 by Tang et al.

T1 sequence (P35918 20-1345): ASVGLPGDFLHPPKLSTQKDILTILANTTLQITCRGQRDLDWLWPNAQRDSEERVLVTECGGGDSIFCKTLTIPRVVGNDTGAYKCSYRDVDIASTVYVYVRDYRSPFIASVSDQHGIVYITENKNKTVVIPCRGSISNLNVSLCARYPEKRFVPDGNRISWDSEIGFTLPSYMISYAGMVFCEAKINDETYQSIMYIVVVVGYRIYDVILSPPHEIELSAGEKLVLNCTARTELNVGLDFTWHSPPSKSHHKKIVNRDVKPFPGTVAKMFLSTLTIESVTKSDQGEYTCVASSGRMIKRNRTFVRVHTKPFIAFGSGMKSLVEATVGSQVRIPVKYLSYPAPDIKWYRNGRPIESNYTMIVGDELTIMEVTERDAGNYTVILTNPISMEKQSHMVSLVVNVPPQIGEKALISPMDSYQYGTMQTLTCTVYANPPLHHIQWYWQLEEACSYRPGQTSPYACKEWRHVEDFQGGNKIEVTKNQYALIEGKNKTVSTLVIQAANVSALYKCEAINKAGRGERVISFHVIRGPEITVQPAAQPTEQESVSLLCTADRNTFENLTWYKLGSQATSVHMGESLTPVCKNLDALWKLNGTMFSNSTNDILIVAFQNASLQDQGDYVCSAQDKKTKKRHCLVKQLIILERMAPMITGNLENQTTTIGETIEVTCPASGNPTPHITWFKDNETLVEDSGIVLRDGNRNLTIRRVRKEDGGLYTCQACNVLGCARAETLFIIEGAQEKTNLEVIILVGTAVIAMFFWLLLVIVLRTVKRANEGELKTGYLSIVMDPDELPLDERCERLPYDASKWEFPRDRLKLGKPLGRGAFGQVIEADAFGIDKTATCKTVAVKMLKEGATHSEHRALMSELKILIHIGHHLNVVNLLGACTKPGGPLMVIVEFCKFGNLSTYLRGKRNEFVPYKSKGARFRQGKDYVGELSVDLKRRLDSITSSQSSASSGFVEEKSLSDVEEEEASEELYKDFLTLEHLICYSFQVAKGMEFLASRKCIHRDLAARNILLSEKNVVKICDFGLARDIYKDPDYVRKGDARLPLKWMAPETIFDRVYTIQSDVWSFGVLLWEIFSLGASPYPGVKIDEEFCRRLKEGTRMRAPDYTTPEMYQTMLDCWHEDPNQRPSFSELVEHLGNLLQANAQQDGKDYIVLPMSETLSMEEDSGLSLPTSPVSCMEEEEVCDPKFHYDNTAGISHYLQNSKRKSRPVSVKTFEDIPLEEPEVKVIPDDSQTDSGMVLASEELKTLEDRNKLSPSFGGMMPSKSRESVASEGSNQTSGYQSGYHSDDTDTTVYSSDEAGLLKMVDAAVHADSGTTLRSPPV

| Compound | Fik Kinase %Inhibition [1] | PDGF Kinase %Inhibition [2] [%] |
| --- | --- | --- |
| CCOC(=O)c1[nH]c(C=C2C(=O)Nc3ccc(I)cc32)c(C(=O)OC)c1C [10726/B03] | 11.1% | 16.4 |
| O=C1Nc2ccc(S(=O)(=O)Nc3ccc(C(F)(F)F)cc3)cc2C1=Cc1c(Br)cnn1-c1ccc(Cl)cc1 [10725/E10] | 9.3% | 28.4 |
| O=C1Nc2ccc(F)cc2C1=C1C(=O)Nc2ccc(I)cc21 [10726/B08] | 12.2% | 24.6 |
| O=C1Nc2ccc(S(=O)(=O)N3CCOCC3)cc2C1=Cc1ccc(Br)cc1 [10717/F08] | -0.7% |  |
| O=C1Nc2ccc(CCCl)cc2C1=Cc1cccs1 [10717/G03] | 1.8% |  |
| COc1ccc(C=C2C(=O)Nc3c(Br)cc(Br)cc32)cc1 [10726/A11] | 0.5% | 23.3 |
| CNS(=O)(=O)c1ccc2c(c1)C(=Cc1ccc(N3CCN(C=O)CC3)cc1)C(=O)N2 [10725/D07] | 2.6% | 18.4 |
| CNS(=O)(=O)c1ccc2c(c1)C(=Cc1ccc(C)o1)C(=O)N2 [10725/D04] | 3.6% | 12.2 |
| Cc1c(Br)ccc2c1C(=Cc1cc(O)c3c(c1O)CCCC3)C(=O)N2 [10726/C07] | -17.0% | -67.7 |
| COc1cc(C)cc(O)c1C=C1C(=O)Nc2ccc(Br)c(C)c21 [10725/C06] | -9.3% | 46.6 |
| O=CN1CCN(c2ccc(C=C3C(=O)Nc4ccc(S(=O)(=O)Nc5ccc(C(F)(F)F)cc5)cc43)cc2)CC1 [10725/E07] | 9.7% | 28.9 |
| O=C1Nc2ccc(I)cc2C1=Cc1ccc(Br)o1 [10726/B05] | 13.2% | 27.1 |
| O=C1Nc2ccc(S(=O)(=O)N3CCOCC3)cc2C1=Cc1c[nH]cn1 [10725/F11] | 9.9% | 20.3 |
| O=CN1CCN(c2ccc(C=C3C(=O)Nc4ccc(CCCl)cc43)cc2)CC1 [10725/G07] | 4.8% | 23.7 |
| O=C1Nc2c(Br)cc(Br)cc2C1=Cc1cc(O)c2c(c1O)CCCC2 [10726/A07] | -72.3% | -36.8 |
| Cc1cn(C)cc1C=C1C(=O)Nc2c(Br)cc(Br)cc21 [10726/A06] | -4.6% | 22.1 |
| COC(=O)Cc1c(Cl)[nH]c(C=C2C(=O)Nc3ccc(S(=O)(=O)N4CCOCC4)cc32)c1C(=O)OC [10725/F09] | 6.8% | 28.4 |
| Cc1c(Br)ccc2c1C(=Cc1c[nH]cn1)C(=O)N2 [10725/C11] | 104.5% | 80.7 |
| Cc1cc(C=C2C(=O)Nc3ccc(I)cc32)cc(C(C)(C)C)c1O [10726/B04] | 16.8% | 39.1 |
| Cc1cn(C)cc1C=C1C(=O)Nc2ccc(Br)c(C)c21 [10726/C06] | 23.8% | 36.0 |
| O=C1Nc2ccccc2C1=C1C(=O)Nc2c(Br)cc(Br)cc21 [10726/A09] | -4.5% | 16.4 |
| Cc1ccc(C=C2C(=O)Nc3ccc(S(=O)(=O)Nc4ccc(C(F)(F)F)cc4)cc32)o1 [10725/E04] | -38.8% | 3.1 |
| O=C1Nc2ccc(S(=O)(=O)N3CCOCC3)cc2C1=Cc1sccc1Br [10725/F02] | 5.8% | -15.1 |
| Cc1c(Br)ccc2c1C(=Cc1ccc(Br)o1)C(=O)N2 [10726/C05] | 4.0% | 25.2 |

| Compound | Fik Kinase %Inhibition [1] | PDGF Kinase %Inhibition [2] [%] |
| --- | --- | --- |
| O=C1Nc2ccc(S(=O)(=O)Nc3ccc(C(F)(F)F)cc3)cc2C1=Cc1c[nH]cn1 [10725/E11] | 18.9% | 20.8 |
| O=C1Nc2ccc(S(=O)(=O)Nc3ccc(C(F)(F)F)cc3)cc2C1=Cc1sccc1Br [10725/E02] | -5.6% | -8.9 |
| Cc1ccc(C=C2C(=O)Nc3ccc(S(=O)(=O)N4CCOCC4)cc32)s1 [10717/F07] | 2.0% |  |
| CNS(=O)(=O)c1ccc2c(c1)C(=Cc1c[nH]cn1)C(=O)N2 [10725/D11] | 13.6% | 23.2 |
| CNS(=O)(=O)c1ccc2c(c1)C(=Cc1[nH]c(Cl)c(CC(=O)OC)c1C(=O)OC)C(=O)N2 [10725/D09] | -0.9% | 35.6 |
| COc1ccc(Br)c(C=C2C(=O)Nc3ccc(S(=O)(=O)Nc4ccc(C(F)(F)F)cc4)cc32)c1O [10725/E03] | -0.8% | 10.7 |
| O=C1Nc2ccc(CCCl)cc2C1=Cc1ccc(N2CCOCC2)cc1 [10725/G08] | -14.8% | 8.3 |
| O=C1Nc2ccc(S(=O)(=O)Nc3ccc(C(F)(F)F)cc3)cc2C1=Cc1ccc(N2CCOCC2)cc1 [10725/E08] | 12.1% | 48.6 |
| CCOC(=O)c1[nH]c(C=C2C(=O)Nc3c(Br)cc(Br)cc32)c(C(=O)OC)c1C [10726/A03] | -2.6% | 4.3 |
| CCOC(=O)c1[nH]c(C=C2C(=O)Nc3ccc(Br)c(C)c32)c(C(=O)OC)c1C [10726/C03] | 24.9% | 28.4 |
| Cc1[nH]c(C=C2C(=O)Nc3ccc(S(=O)(=O)N4CCOCC4)cc32)c(Br)c1Br [10717/F11] | 1.4% |  |
| O=C1Nc2c(Br)cc(Br)cc2C1=Cc1ccc(Br)o1 [10726/A05] | -7.1% | 22.1 |
| Cc1cn(C)cc1C=C1C(=O)Nc2ccc(I)cc21 [10726/B06] | 11.3% | 34.1 |
| CNS(=O)(=O)c1ccc2c(c1)C(=Cc1sccc1Br)C(=O)N2 [10725/D02] | -3.6% | -8.4 |
| CNS(=O)(=O)c1ccc2c(c1)C(=Cc1c(O)cc(C)cc1OC)C(=O)N2 [10725/D06] | -0.5% | 21.7 |
| O=C1Nc2ccc(I)cc2C1=Cc1cc(O)c2c(c1O)CCCC2 [10726/B07] | -36.5% | -59.5 |
| Cc1c(Br)ccc2c1C(=Cc1sccc1Br)C(=O)N2 [10725/C02] | 7.0% | -5.1 |
| Cc1c(Br)ccc2c1C(=Cc1ccc(N3CCN(C=O)CC3)cc1)C(=O)N2 [10725/C07] | 65.0% | 107.0 |
| Cc1c(Br)ccc2c1C(=Cc1ccc(N3CCOCC3)cc1)C(=O)N2 [10725/C08] | -8.7% | 101.7 |
| O=C1Nc2c(Br)cc(Br)cc2C1=Cc1ccc(F)cc1 [10717/A05] | -2.6% |  |
| CCOc1ccccc1C=C1C(=O)Nc2ccc(CCCl)cc21 [10717/G02] | 14.9% |  |
| COc1cccc(O)c1C=C1C(=O)Nc2ccc(S(=O)(=O)N3CCOCC3)cc21 [10717/F10] | -4,4% |  |
| O=C1Nc2ccc(S(=O)(=O)N3CCOCC3)cc2C1=Cc1ccc[nH]1 [10717/F09] | -13.3% |  |
